Data as given in article PMC5218480 (PLoS ONE, 2017).

Test system: MV-4-11 cells
Experiment: Gene expression microarray analysis (Affymetrix PrimeView) and GSEA
Type: cell-based, human
Design: RFU PODN (11730768_x_at) / Fold change /veh PODN (11730768_x_at) / RFU LINC00158 (11744669_a_at) / Fold change /veh LINC00158 (11744669_a_at) / RFU DUSP10 (11751237_a_at) / Fold change /veh DUSP10 (11751237_a_at) / RFU ID3 (11757404_x_at) / Fold change /veh ID3 (11757404_x_at) / RFU PLEKHG5 (11737974_s_at) / Fold change /veh PLEKHG5 (11737974_s_at) / RFU LRRC4B (11730491_at) / Fold change /veh LRRC4B (11730491_at) / RFU GIMAP4 (11747438_a_at) / Fold change /veh GIMAP4 (11747438_a_at) / RFU KRT8 (11758183_x_at) / Fold change /veh KRT8 (11758183_x_at) / RFU CNN1 (11734310_a_at) / Fold change /veh CNN1 (11734310_a_at) / RFU VPS37D (11726825_at) / Fold change /veh VPS37D (11726825_at) / RFU C10orf10 (11716522_x_at) / Fold change /veh C10orf10 (11716522_x_at) / RFU KIR2DL2 /// KIR2DL4 /// KIR2DL5A /// KIR2DL5B /// KIR2DS1 /// KIR2DS2 /// KIR2DS3 /// KIR2DS4 /// KIR3DL3 /// KIR3DL3 /// KIR3DS1 (11738374_at) / Fold change /veh KIR2DL2 /// KIR2DL4 /// KIR2DL5A /// KIR2DL5B /// KIR2DS1 /// KIR2DS2 /// KIR2DS3 /// KIR2DS4 /// KIR3DL3 /// KIR3DL3 /// KIR3DS1 (11738374_at) / RFU C1QL1 (11718748_at) / Fold change /veh C1QL1 (11718748_at) / RFU TMPRSS4 (11747572_a_at) / Fold change /veh TMPRSS4 (11747572_a_at) / RFU HAMP (11756126_x_at) / Fold change /veh HAMP (11756126_x_at) / RFU RNFT2 (11725882_a_at) / Fold change /veh RNFT2 (11725882_a_at) / RFU NR4A2 (11747474_a_at) / Fold change /veh NR4A2 (11747474_a_at) / RFU ABCC12 (11746883_a_at) / Fold change /veh ABCC12 (11746883_a_at) / RFU TMEM136 (11760407_x_at) / Fold change /veh TMEM136 (11760407_x_at) / RFU CLDN22 /// WWC2 (11732394_at) / Fold change /veh CLDN22 /// WWC2 (11732394_at) / RFU HLA-DPB1 (11760878_x_at) / Fold change /veh HLA-DPB1 (11760878_x_at) / RFU SPINT1 (11716480_a_at) / Fold change /veh SPINT1 (11716480_a_at) / RFU GAP43 (11754022_s_at) / Fold change /veh GAP43 (11754022_s_at) / RFU A4GNT (11735810_at) / Fold change /veh A4GNT (11735810_at) / RFU PRB3 (11715151_x_at) / Fold change /veh PRB3 (11715151_x_at) / RFU TUBB4B (11761932_at) / Fold change /veh TUBB4B (11761932_at) / RFU CAPN14 (11732068_a_at) / Fold change /veh CAPN14 (11732068_a_at) / RFU TMCC2 (11721928_a_at) / Fold change /veh TMCC2 (11721928_a_at) / RFU IRGQ (11745062_a_at) / Fold change /veh IRGQ (11745062_a_at) / RFU FAM174B (11720279_a_at) / Fold change /veh FAM174B (11720279_a_at) / RFU TMPRSS4 (11748680_a_at) / Fold change /veh TMPRSS4 (11748680_a_at) / RFU FAM212B (11763350_a_at) / Fold change /veh FAM212B (11763350_a_at) / RFU PLEKHG5 (11743358_a_at) / Fold change /veh PLEKHG5 (11743358_a_at) / RFU ZSCAN30 (11745921_a_at) / Fold change /veh ZSCAN30 (11745921_a_at) / RFU CMKLR1 (11741424_a_at) / Fold change /veh CMKLR1 (11741424_a_at) / RFU LOC101060620 /// MAPK8IP1 (11723275_at) / Fold change /veh LOC101060620 /// MAPK8IP1 (11723275_at) / RFU SPTSSB (11747773_x_at) / Fold change /veh SPTSSB (11747773_x_at) / RFU PRSS12 (11739890_at) / Fold change /veh PRSS12 (11739890_at) / RFU BIN1 (11741810_x_at) / Fold change /veh BIN1 (11741810_x_at) / RFU WNT11 (11732464_a_at) / Fold change /veh WNT11 (11732464_a_at) / RFU C10orf10 (11716521_a_at) / Fold change /veh C10orf10 (11716521_a_at) / RFU C5orf56 (11738089_at) / Fold change /veh C5orf56 (11738089_at) / RFU CYB561 (11721691_x_at) / Fold change /veh CYB561 (11721691_x_at) / RFU ANKRD19P (11752326_a_at) / Fold change /veh ANKRD19P (11752326_a_at) / RFU OR2T12 /// OR2T33 /// OR2T8 (11738714_s_at) / Fold change /veh OR2T12 /// OR2T33 /// OR2T8 (11738714_s_at) / RFU VCAN (11748164_a_at) / Fold change /veh VCAN (11748164_a_at) / RFU JSRP1 (11732532_at) / Fold change /veh JSRP1 (11732532_at) / RFU KRTAP10-11 (11738290_x_at) / Fold change /veh KRTAP10-11 (11738290_x_at) / RFU MYO3A (11730013_a_at) / Fold change /veh MYO3A (11730013_a_at) / RFU EBF3 (11725865_a_at) / Fold change /veh EBF3 (11725865_a_at) / RFU CAMK2N1 (11719241_x_at) / Fold change /veh CAMK2N1 (11719241_x_at) / RFU C5orf56 (11738088_a_at) / Fold change /veh C5orf56 (11738088_a_at) / RFU OLFML3 (11715873_a_at) / Fold change /veh OLFML3 (11715873_a_at) / RFU LOC100653217 /// NTM (11731650_a_at) / Fold change /veh LOC100653217 /// NTM (11731650_a_at) / RFU MAPK11 (11762145_a_at) / Fold change /veh MAPK11 (11762145_a_at) / RFU FIZ1 (11724087_x_at) / Fold change /veh FIZ1 (11724087_x_at) / RFU OASL (11726364_x_at) / Fold change /veh OASL (11726364_x_at) / RFU SOX15 (11748057_x_at) / Fold change /veh SOX15 (11748057_x_at) / RFU CD79A (11719716_a_at) / Fold change /veh CD79A (11719716_a_at) / RFU HIST1H1D (11736915_at) / Fold change /veh HIST1H1D (11736915_at) / RFU CASKIN2 (11723855_a_at) / Fold change /veh CASKIN2 (11723855_a_at) / RFU LOC730098 (11760151_x_at) / Fold change /veh LOC730098 (11760151_x_at) / RFU OR4N2 (11742367_at) / Fold change /veh OR4N2 (11742367_at) / RFU PRRT2 (11749266_a_at) / Fold change /veh PRRT2 (11749266_a_at) / RFU SNX32 (11753110_a_at) / Fold change /veh SNX32 (11753110_a_at) / RFU CDHR5 (11726645_a_at) / Fold change /veh CDHR5 (11726645_a_at) / RFU RCAN1 (11760418_a_at) / Fold change /veh RCAN1 (11760418_a_at) / RFU FAM167A (11723789_a_at) / Fold change /veh FAM167A (11723789_a_at) / RFU FAM26E (11764081_at) / Fold change /veh FAM26E (11764081_at) / RFU ISYNA1 (11749810_s_at) / Fold change /veh ISYNA1 (11749810_s_at) / RFU ACY1 (11761880_at) / Fold change /veh ACY1 (11761880_at) / RFU 11764098_at / Fold change /veh 11764098_at / RFU SAMD14 (11745864_x_at) / Fold change /veh SAMD14 (11745864_x_at) / RFU NPB (11741838_a_at) / Fold change /veh NPB (11741838_a_at) / RFU TMPRSS6 (11731388_a_at) / Fold change /veh TMPRSS6 (11731388_a_at) / RFU KRTAP10-2 (11738614_at) / Fold change /veh KRTAP10-2 (11738614_at) / RFU ARHGAP8 /// PRR5-ARHGAP8 (11727945_x_at) / Fold change /veh ARHGAP8 /// PRR5-ARHGAP8 (11727945_x_at) / RFU KRTAP5-7 /// NADSYN1 (11734609_at) / Fold change /veh KRTAP5-7 /// NADSYN1 (11734609_at) / RFU RASL12 (11751679_a_at) / Fold change /veh RASL12 (11751679_a_at) / RFU CDKN2B (11736163_a_at) / Fold change /veh CDKN2B (11736163_a_at) / RFU PRF1 (11729649_at) / Fold change /veh PRF1 (11729649_at) / RFU, ZNF638 /// ZNF638-IT1 / Fold change vs veh, ZNF638 /// ZNF638-IT1 / RFU, PANK3 / Fold change vs veh, PANK3 / RFU, SH3YL1 / Fold change vs veh, SH3YL1 / RFU, ZEB2 / Fold change vs veh, ZEB2 / RFU, NRIP1 / Fold change vs veh, NRIP1 / RFU, PTTG1IP / Fold change vs veh, PTTG1IP / RFU, CAPN2 / Fold change vs veh, CAPN2 / RFU, MED14 / Fold change vs veh, MED14 / RFU, SNORA58 / Fold change vs veh, SNORA58 / RFU, C1orf63 / Fold change vs veh, C1orf63 / RFU, LRRFIP1 / Fold change vs veh, LRRFIP1 / RFU, NDUFAF7 / Fold change vs veh, NDUFAF7 / RFU, SLC12A2 / Fold change vs veh, SLC12A2 / RFU, IBTK / Fold change vs veh, IBTK / RFU, ESF1 / Fold change vs veh, ESF1 / Fold change vs veh, TMEM50B / RFU, TAOK1 / Fold change vs veh, TAOK1 / RFU, ACBD3 / Fold change vs veh, ACBD3 / RFU, TMA16 / Fold change vs veh, TMA16 / RFU, RWDD3 / Fold change vs veh, RWDD3 / RFU, BCAT1 / Fold change vs veh, BCAT1 / RFU, EDEM3 / Fold change vs veh, EDEM3 / RFU, TMEM33 / Fold change vs veh, TMEM33 / RFU, WDR75 / Fold change vs veh, WDR75 / RFU, AHCTF1 / Fold change vs veh, AHCTF1 / RFU, TFRC / Fold change vs veh, TFRC / RFU, ZDHHC17 / Fold change vs veh, ZDHHC17 / RFU, NOM1 / Fold change vs veh, NOM1 / RFU, ARL8B / Fold change vs veh, ARL8B / RFU, ZBTB11 / Fold change vs veh, ZBTB11 / RFU, TAMM41 / Fold change vs veh, TAMM41 / RFU, KIAA1704 /// LOC100996395 / Fold change vs veh, KIAA1704 /// LOC100996395 / RFU, ING1 / Fold change vs veh, ING1 / RFU, TRMT61B / Fold change vs veh, TRMT61B / RFU, FUBP3 / Fold change vs veh, FUBP3 / RFU, TP53 / Fold change vs veh, TP53 / RFU, TNKS2 / Fold change vs veh, TNKS2 / RFU, ZFP14 / Fold change vs veh, ZFP14 / RFU, ACTR2 / Fold change vs veh, ACTR2 / RFU, PPP3R1 / Fold change vs veh, PPP3R1 / RFU, PIK3R1 / Fold change vs veh, PIK3R1 / RFU, HNRNPA1 / Fold change vs veh, HNRNPA1 / RFU, RNF170 / Fold change vs veh, RNF170 / RFU, ZNF28 / Fold change vs veh, ZNF28 / RFU, RNGTT / Fold change vs veh, RNGTT / RFU, OGT / Fold change vs veh, OGT / RFU, BRD1 / Fold change vs veh, BRD1 / RFU, MARS / Fold change vs veh, MARS / RFU, ZNF655 / Fold change vs veh, ZNF655 / RFU, FAHD1 / Fold change vs veh, FAHD1 / RFU, BDP1 / Fold change vs veh, BDP1 / RFU, LRRCC1 / Fold change vs veh, LRRCC1 / RFU, ARID1A / Fold change vs veh, ARID1A / RFU, ZNF146 / Fold change vs veh, ZNF146 / RFU, ZNF330 / Fold change vs veh, ZNF330 / RFU, GPN3 / Fold change vs veh, GPN3 / RFU, C9orf123 / Fold change vs veh, C9orf123 / RFU, N4BP2L2 / Fold change vs veh, N4BP2L2 / RFU, ARFIP1 / Fold change vs veh, ARFIP1 / RFU, FAM179B / Fold change vs veh, FAM179B / RFU, BCL10 / Fold change vs veh, BCL10 / RFU, UHRF1BP1L / Fold change vs veh, UHRF1BP1L / RFU, BET1 / Fold change vs veh, BET1 / RFU, CNOT2 / Fold change vs veh, CNOT2 / RFU, ZNF268 / Fold change vs veh, ZNF268 / Fold change vs veh, ZNF507 / RFU, DGCR2 / Fold change vs veh, DGCR2 / RFU, WDSUB1 / Fold change vs veh, WDSUB1 / Fold change vs veh, HSP90B1 /// MIR3652 / RFU, ADSS / Fold change vs veh, ADSS / RFU, GK / Fold change vs veh, GK / RFU, ZNF148 / Fold change vs veh, ZNF148 / RFU, TAF9 / Fold change vs veh, TAF9 / RFU, SLC1A5 / Fold change vs veh, SLC1A5 / RFU, SLMO2 / Fold change vs veh, SLMO2 / RFU, ABCC4 / Fold change vs veh, ABCC4 / RFU, LOC101060439 /// RAP1B / Fold change vs veh, LOC101060439 /// RAP1B / RFU, RFX7 / Fold change vs veh, RFX7 / RFU, GTPBP10 / Fold change vs veh, GTPBP10 / RFU, CNEP1R1 / Fold change vs veh, CNEP1R1 / RFU, BIVM-ERCC5 /// ERCC5 / Fold change vs veh, BIVM-ERCC5 /// ERCC5 / RFU, ILF3 / Fold change vs veh, ILF3 / RFU 11762660_at / Fold change /veh 11762660_at / RFU VCAN (11757783_s_at) / Fold change /veh VCAN (11757783_s_at) / RFU DDX43 (11728927_at) / Fold change /veh DDX43 (11728927_at) / RFU KRT8 (11758188_x_at) / Fold change /veh KRT8 (11758188_x_at) / RFU NKD1 (11759106_at) / Fold change /veh NKD1 (11759106_at) / RFU SRD5A1 (11742802_a_at) / Fold change /veh SRD5A1 (11742802_a_at) / RFU TPSAB1 /// TPSB2 (11721975_s_at) / Fold change /veh TPSAB1 /// TPSB2 (11721975_s_at) / RFU GSTM3 (11746129_a_at) / Fold change /veh GSTM3 (11746129_a_at) / RFU IL23R (11737362_x_at) / Fold change /veh IL23R (11737362_x_at) / RFU TMEM51 (11727254_a_at) / Fold change /veh TMEM51 (11727254_a_at) / RFU PIWIL2 (11732686_x_at) / Fold change /veh PIWIL2 (11732686_x_at) / RFU ORM1 (11744905_x_at) / Fold change /veh ORM1 (11744905_x_at) / RFU CCDC152 (11743942_at) / Fold change /veh CCDC152 (11743942_at) / RFU ECM1 (11717891_a_at) / Fold change /veh ECM1 (11717891_a_at) / RFU IL23R (11748794_a_at) / Fold change /veh IL23R (11748794_a_at) / RFU TNFAIP8L3 (11732012_x_at) / Fold change /veh TNFAIP8L3 (11732012_x_at) / RFU MBOAT4 (11741988_at) / Fold change /veh MBOAT4 (11741988_at) / RFU 11764193_at / Fold change /veh 11764193_at / RFU TMEM53 (11763286_at) / Fold change /veh TMEM53 (11763286_at) / RFU MAGEB2 (11727129_at) / Fold change /veh MAGEB2 (11727129_at) / RFU TMEM200A (11744735_a_at) / Fold change /veh TMEM200A (11744735_a_at) / RFU CCDC152 (11751479_a_at) / Fold change /veh CCDC152 (11751479_a_at) / RFU FAM211A (11726209_a_at) / Fold change /veh FAM211A (11726209_a_at) / RFU RGS16 (11746705_a_at) / Fold change /veh RGS16 (11746705_a_at) / RFU VCAN (11755009_s_at) / Fold change /veh VCAN (11755009_s_at) / RFU RHOB (11743442_s_at) / Fold change /veh RHOB (11743442_s_at) / RFU RGS16 (11720943_a_at) / Fold change /veh RGS16 (11720943_a_at) / RFU RGS16 (11720944_at) / Fold change /veh RGS16 (11720944_at) / RFU, VPS4B / Fold change vs veh, VPS4B / RFU, CREB1 / Fold change vs veh, CREB1 / RFU, DNAJC13 / Fold change vs veh, DNAJC13 / RFU, GNAQ / Fold change vs veh, GNAQ / RFU, CDK5R1 / Fold change vs veh, CDK5R1 / RFU, ZRANB3 / Fold change vs veh, ZRANB3 / RFU, CUL4A / Fold change vs veh, CUL4A / RFU, CCNY / Fold change vs veh, CCNY / RFU, UFL1 / Fold change vs veh, UFL1 / RFU, COG3 / Fold change vs veh, COG3 / RFU, DIAPH2 / Fold change vs veh, DIAPH2 / RFU, SKA2 / Fold change vs veh, SKA2 / RFU, AFF3 / Fold change vs veh, AFF3 / RFU, LMF1 / Fold change vs veh, LMF1 / RFU, IPO11 / Fold change vs veh, IPO11 / RFU, DFFB / Fold change vs veh, DFFB / RFU, FOXP1 / Fold change vs veh, FOXP1 / RFU, CARD8 / Fold change vs veh, CARD8 / RFU, STRN3 / Fold change vs veh, STRN3 / RFU, ADK / Fold change vs veh, ADK / RFU, RASSF2 / Fold change vs veh, RASSF2 / RFU, WIPF1 / Fold change vs veh, WIPF1 / RFU, LARP1B / Fold change vs veh, LARP1B / RFU, RASA1 / Fold change vs veh, RASA1 / RFU, RB1 / Fold change vs veh, RB1 / RFU, PPFIA1 / Fold change vs veh, PPFIA1 / RFU, MAT2A / Fold change vs veh, MAT2A / RFU, CCT5 / Fold change vs veh, CCT5 / RFU, WDR92 / Fold change vs veh, WDR92 / RFU, CUX1 / Fold change vs veh, CUX1 / RFU, TTC7A / Fold change vs veh, TTC7A / RFU, TMEM135 / Fold change vs veh, TMEM135 / RFU, DEPTOR / Fold change vs veh, DEPTOR / RFU, CPM / Fold change vs veh, CPM / RFU, DNAJB6 / Fold change vs veh, DNAJB6 / RFU, CACNA2D3 / Fold change vs veh, CACNA2D3 / RFU, DTX4 / Fold change vs veh, DTX4 / RFU, TFCP2 / Fold change vs veh, TFCP2 / RFU, GMCL1 /// GMCL1P1 / Fold change vs veh, GMCL1 /// GMCL1P1 / RFU, AEBP2 / Fold change vs veh, AEBP2 / RFU, SNHG1 /// SNORD22 /// SNORD25 /// SNORD26 /// SNORD27 /// SNORD28 /// SNORD29 /// SNORD31 / Fold change vs veh, SNHG1 /// SNORD22 /// SNORD25 /// SNORD26 /// SNORD27 /// SNORD28 /// SNORD29 /// SNORD31 / Fold change (Aza/veh), C12orf56 (ProbeSet 11735607_a_at) / Fold change (ACY-1035/veh), C12orf56 (ProbeSet 11735607_a_at) / Fold change (Aza/veh), FGFR1OP (ProbeSet 11751329_s_at) / Fold change (ACY-1035/veh), FGFR1OP (ProbeSet 11751329_s_at) / Fold change (Aza/veh), VPS36 (ProbeSet 11739960_a_at) / Fold change (ACY-1035/veh), VPS36 (ProbeSet 11739960_a_at) / RFU SYPL1 (11715823_x_at) / Fold change /veh SYPL1 (11715823_x_at) / RFU IGFBP7 (11715501_s_at) / Fold change /veh IGFBP7 (11715501_s_at) / RFU REEP3 (11722064_at) / Fold change /veh REEP3 (11722064_at) / RFU IGLL1 (11728026_x_at) / Fold change /veh IGLL1 (11728026_x_at): dose or concentration left out as unconfirmed
Settings: MV-4-11 cells, 48 hours

Question: How did the “Fold change /veh MBOAT4 (11741988_at)” value turn out when `Nc1ncn([C@@H]2O[C@H](CO)[C@@H](O)[C@H]2O)c(=O)n1` [azacitidine] was run?
Answer: 1.51
